Key:
[1] = system: a2^14AP (DNA, G4, 2-aminopurine at 14 (replaces A)) GGGGTGTGGGGACAGGGGTGTGGGG; assay: 2-aminopurine fluorescence quenching titration; conditions: K+ 25 mM; K-phosphate buffer, pH 7.0, 20 °C; 30 µM DNA; significant quenching only above ligand–DNA ratio 1
[2] = system: a2^12AP (DNA, G4, 2-aminopurine at 12 (replaces A)) GGGGTGTGGGGACAGGGGTGTGGGG; assay: 2-aminopurine fluorescence quenching titration; conditions: K+ 25 mM; K-phosphate buffer, pH 7.0, 20 °C; 30 µM DNA; significant quenching only above ligand–DNA ratio 1
[3] = system: a2 (DNA, G4) GGGGTGTGGGGACAGGGGTGTGGGG; assay: fluorimetric titration (ligand fluorescence quenching); conditions: K+ 25 mM; K-phosphate buffer, pH 7.0, 20 °C; 20 μM ligand
[4] = system: a2 (DNA, G4) GGGGTGTGGGGACAGGGGTGTGGGG; assay: 1H NMR / NOESY titration; conditions: K+ 25 mM; K-phosphate buffer, pH 7.0, 25 °C, 2.0 mM a2; terminal stacking on G1-G11-G15-G25 quartet

binding [1]: yes
binding [2]: yes
Kb [3]: 1.4 ± 0.2 × 10^6 M^-1
SMILES: Cc1cc2c3c([n+](C)c4ccc(F)cc4c3c1)-c1cc(F)ccc1N2C
binding [4]: yes

Source: paper PMC8587938 (2021)
